Entries after “also recorded” stand apart in the source; their conditions may differ.
What was measured:
[1] = molecular target: T1, NanoLuc–SIRT2 fusion protein in HEK293T cells (Homo sapiens, UniProt Q8IXJ6); experiment: Kinetic NanoBRET washout assay (target residence time); assay type: cell-based; settings: 25 µM (5 × EC50), 2 h preincubation, 2 h washout
T1 construct: HEK293T cells stably expressing the NanoLuc-SIRT250-364-fusion target protein were seeded into the coated plates; expressed in transfected cells; host or cells: HEK293T (stably expressing)
T1 sequence (Q8IXJ6 50-364 limits assumed): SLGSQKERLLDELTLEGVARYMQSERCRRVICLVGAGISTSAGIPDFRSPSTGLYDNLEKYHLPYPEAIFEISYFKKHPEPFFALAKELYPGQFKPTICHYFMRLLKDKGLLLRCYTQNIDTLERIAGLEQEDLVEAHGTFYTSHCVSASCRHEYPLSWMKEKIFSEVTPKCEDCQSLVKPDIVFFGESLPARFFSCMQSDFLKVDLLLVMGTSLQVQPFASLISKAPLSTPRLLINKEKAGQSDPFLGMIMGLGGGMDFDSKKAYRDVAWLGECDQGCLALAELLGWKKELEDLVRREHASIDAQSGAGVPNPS
Method: NanoBRET washout assay for determination of target residence time
A NanoBRET-based washout assay was used to assess the target residence time of inhibitors for SIRT2 in living cells. White, flat-bottom 96-well plates (PerkinElmer) were pre-coated with poly-L-lysine (Sigma-Aldrich) to enhance cell adherence. Briefly, each well was treated with poly-L-lysine solution for 5 min at room temperature, followed by removal of the coating solution and air-drying before seeding.
Cells were treated with the indicated inhibitor
After incubation, the inhibitor-containing medium was aspirated, and a washout procedure was performed to remove unbound inhibitor. Each well was washed twice by sequential addition and removal of 100 µL Opti-MEM (Thermo Fisher Scientific). Following the final wash, 90 µL Opti-MEM was added per well, followed by 100 µL of 2× Nano-Glo® substrate solution (Promega) and 10 µL of 20× SIRT2-Tracer solution.
BRET measurements were recorded kinetically using a Tecan Spark® plate reader equipped with donor (460 nm)
The BRET ratio was monitored over time to track the re-binding of the

[2] = molecular target: T2, NanoLuc–SIRT2 fusion protein in HEK293T cells (Homo sapiens, UniProt Q8IXJ6); design: method as in PMID 35441145; settings: read-out: NanoBRET EC50; cited from earlier work
T2 construct: transfected HEK293T cells expressing the NanoLuc-tagged SIRT250-356 fusion protein were used instead of transient; expressed in transfected cells; host or cells: HEK293T (stably transfected)
T2 sequence (Q8IXJ6 50-356 limits assumed): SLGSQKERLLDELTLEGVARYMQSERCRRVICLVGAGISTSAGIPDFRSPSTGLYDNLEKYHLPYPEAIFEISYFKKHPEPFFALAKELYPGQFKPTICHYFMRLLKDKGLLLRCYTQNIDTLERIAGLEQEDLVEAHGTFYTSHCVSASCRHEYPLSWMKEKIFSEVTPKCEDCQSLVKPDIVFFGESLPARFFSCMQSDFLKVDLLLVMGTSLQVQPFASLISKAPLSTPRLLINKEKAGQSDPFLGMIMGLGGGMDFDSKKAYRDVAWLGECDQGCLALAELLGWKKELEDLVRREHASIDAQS

SMILES: O=C(NCc1cccnc1)c1ccc2c(c1)C1C3CCC(C3)C1C(c1ccccc1)N2 (centres unmarked) [AEM2, reference compound]
- inhibition after washout [1]: completely lost activity; also recorded: fades with washout over 2 h
- EC50 [2]: 5.2 ± 0.2 µM

From article PMC12723449, “From Pharmacophore to Warhead: NAD^+‐Targeting Triazoles as Mechanism‐Based Sirtuin Inhibitors” (Angewandte Chemie (International Ed. in English), 2025)
